# Measured values published in patent publication US8658670B2 (Crestone, Inc., priority 2006, dated 2014).
# Experiments:
# [1] = tested on: C. difficile strain ATCC43255 toxin A; experiment: Toxin A production in high cell density stationary phase cultures (ELIFA); format: cell-based; conditions: 4 day old stationary phase cultures
# Experimental: C. difficile strain ATCC43255 was grown and maintained anaerobically on CDC anaerobe agar (Remel, Lenexa, Kans.). To test the effect of antibacterial agents on growth, cells were grown anaerobically for 40 h at 35° C. in 96-well brain heart infusion (BHI) broth cultures, with an initial inoculum of 10^6 CFU/mL. To test the effect of antibacterial agents on toxin production at high C. difficile cell densities, the cells were grown anaerobically for 24 h at 35° C. in 96-well brain heart infusion (BHI) broth cultures. Spent medium was then replaced with fresh broth containing MetRS inhibitors and control agents at a concentration range of 0.015-16 μg/mL. After 4 days, growth and cell viability were monitored by optical density measurements at 595 nm and by culture on CDC anaerobe agar, respectively. Culture supernatants were collected, and toxin A was detected by ELIFA (enzyme-linked immuno-flow assay) using an anti toxin A monoclonal antibody (Novus Biologicals, Centennial, Colo.).
# C. difficile = experiment: C. difficile-infected hamster survival study; format: in vivo, hamsters
# Experimental: Animal studies were performed to determine the efficacy of MetRS inhibitors for treating C. difficile-infections. The MetRS inhibitors tested were two compounds of formula (II), 5-[3-((R)-6,8-Dibromo-chroman-4-ylamino)-propylamino]-4H-thieno[3,2-b]pyridine-7-one (both racemic mixture and the R enantiomer) and 5-[3-((R)-8-Bromo-6-chloro-chroman-4-ylamino)-propylamino]-4H-thieno[3,2-b]pyridin-7-one. Also tested was a compound of formula (IV), 2-(3-{3,5-Dibromo-2-[2-(4-methyl-thiazol-5-yl)-ethoxy]-benzylamino}-propylamino)-1H-quinolin-4-one.
# Results were compared to C. difficile-infected hamsters treated with the conventional antibiotic, vancomycin. Infected hamsters were treated with either a solution or suspension of a MetRS inhibitor at 5 to 50 mg/kg or vancomycin at 2.5, 5 or 25 mg/kg. There were eight hamsters per group with the final endpoint of the experiment being survival. Expired hamsters were examined for GI condition.
# [2] = tested on: clinical isolates of C. difficile; experiment: Sporulation of C. difficile clinical isolates; format: cell-based
compound,measurement,setting,value
Cc1ncsc1CCOc1c(Br)cc(Br)cc1CNCCCNc1cc(=O)c2sccc2[nH]1,concentration inhibiting toxin production,[1],0.25 µg/mL
"Cl.Cl.Cl.O=c1cc(NCCCNC2CCNc3c(Br)cc(Br)cc32)[nH]c2ccsc12 (stereo not drawn) [5-[3-(6,8-Dibromo-1,2,3,4-tetrahydro-quinolin-4-ylamino)-propylamino]-4H-thieno[3,2-b]pyridin-7-one tri-hydrochloride]",concentration inhibiting toxin production,[1],0.25 µg/mL
"O=c1cc(NCCCNC2CCOc3c(Br)cc(Br)cc32)[nH]c2ccsc12 (stereo not drawn) [5-[3-(6,8-Dibromo-chroman-4-ylamino)-propylamino]-4H-thieno[3,2-b]pyridin-7-one]",concentration inhibiting toxin production,[1],0.25 µg/mL
"O=c1cc(NCCCN[C@@H]2CCOc3c(Br)cc(Br)cc32)[nH]c2ccsc12 [5-[3-((R)-6,8-Dibromo-chroman-4-ylamino)-propylamino]-4H-thieno[3,2-b]pyridine-7-one]",efficacy ranking among tested MetRS inhibitors,"C. difficile; infected hamsters, survival",best efficacy
same,spores (ratio of spores to total cells),"[2]; 0.25×MIC, 96 hours, all strains",< 2%
same,spores (ratio of spores to total cells),"[2]; 0.5×MIC, 96 hours, all strains",< 1%
"Cl.Cl.O=c1cc(NCCCN[C@@H]2CCOc3c(Br)cc(Br)cc32)[nH]c2ccsc12 [R-(+)-5-[3-(6,8-Dibromo-chroman-4-ylamino)-propylamino]-4H-thieno[3,2-b]pyridin-7-one di-hydrochloride]",concentration inhibiting toxin production,[1],0.25 µg/mL
"Cc1ncc([N+](=O)[O-])n1CCO [metronidazole, reference compound]",spores (ratio of spores to total cells),"[2]; subMIC concentrations, all tested strains",up to 100%
"CN[C@H](CC(C)C)C(=O)N[C@H]1C(=O)N[C@@H](CC(N)=O)C(=O)N[C@H]2C(=O)N[C@H]3C(=O)N[C@H](C(=O)N[C@H](C(=O)O)c4cc(O)cc(O)c4-c4cc3ccc4O)[C@H](O)c3ccc(c(Cl)c3)Oc3cc2cc(c3O[C@@H]2O[C@H](CO)[C@@H](O)[C@H](O)[C@H]2O[C@H]2C[C@](C)(N)[C@H](O)[C@H](C)O2)Oc2ccc(cc2Cl)[C@H]1O [vancomycin, reference compound]",survival,"C. difficile; Day 28, vancomycin treatment (2.5, 5 or 25 mg/kg)",0-10%
